Reference: patent US20100068204A1, “4-ARYLOXYQUINOLIN-2(1H)-ONES AS MTOR KINASE AND PI3 KINASE INHIBITORS, FOR USE AS ANTI-CANCER AGENTS” (Wyeth, priority 2008, published 2010)

Key:
[1] = tested on: MDA468 breast tumor cells; assay: In vitro cell growth assay (MTS), MDA468; assay type: cell-based, human; conditions: three days after drug treatment
Method: (§1) Cell lines used were human adenocarcinoma (LoVo), […], prostate (LNCap), breast (MDA468, MCF7), colon (HCT116), renal (HTB44 A498), and ovarian (OVCAR3) tumor cell lines. The tumor cells were plated in 96-well culture plates at approximately 3000 cells per well. One day following plating, various concentrations of inhibitors in DMSO were added to cells (final DMSO concentration in cell assays was 0.25%). Three days after drug treatment, viable cell densities were determined by cell mediated metabolic conversion of the dye MTS, a well-established indicator of cell proliferation in vitro. Cell growth assays were performed using kits purchased from Promega Corporation (Madison, Wis.), following the protocol provided by the vendor. Measuring absorbance at 490 nm generated MTS assay results. Compound effect on cell proliferation was assessed relative to untreated control cell growth.

human TOR (FLAG-TOR) = human TOR (FLAG-TOR) (Homo sapiens, UniProt P42345); assay: mTOR enzyme assay (DELFIA format, purified enzyme); assay type: biochemical; conditions: 800 ng/ml FLAG-TOR, 100 μM ATP, 1.25 μM His6-S6K; read-out: mTOR Kinase IC50
PI3Kα = PI3Kα (Homo sapiens, UniProt P42336); assay: PI3Kα fluorescence polarization assay; assay type: biochemical; conditions: 20 μM PIP2, 25 μM ATP
PI3Kα, sequence (P42336 whole entry, species assumed): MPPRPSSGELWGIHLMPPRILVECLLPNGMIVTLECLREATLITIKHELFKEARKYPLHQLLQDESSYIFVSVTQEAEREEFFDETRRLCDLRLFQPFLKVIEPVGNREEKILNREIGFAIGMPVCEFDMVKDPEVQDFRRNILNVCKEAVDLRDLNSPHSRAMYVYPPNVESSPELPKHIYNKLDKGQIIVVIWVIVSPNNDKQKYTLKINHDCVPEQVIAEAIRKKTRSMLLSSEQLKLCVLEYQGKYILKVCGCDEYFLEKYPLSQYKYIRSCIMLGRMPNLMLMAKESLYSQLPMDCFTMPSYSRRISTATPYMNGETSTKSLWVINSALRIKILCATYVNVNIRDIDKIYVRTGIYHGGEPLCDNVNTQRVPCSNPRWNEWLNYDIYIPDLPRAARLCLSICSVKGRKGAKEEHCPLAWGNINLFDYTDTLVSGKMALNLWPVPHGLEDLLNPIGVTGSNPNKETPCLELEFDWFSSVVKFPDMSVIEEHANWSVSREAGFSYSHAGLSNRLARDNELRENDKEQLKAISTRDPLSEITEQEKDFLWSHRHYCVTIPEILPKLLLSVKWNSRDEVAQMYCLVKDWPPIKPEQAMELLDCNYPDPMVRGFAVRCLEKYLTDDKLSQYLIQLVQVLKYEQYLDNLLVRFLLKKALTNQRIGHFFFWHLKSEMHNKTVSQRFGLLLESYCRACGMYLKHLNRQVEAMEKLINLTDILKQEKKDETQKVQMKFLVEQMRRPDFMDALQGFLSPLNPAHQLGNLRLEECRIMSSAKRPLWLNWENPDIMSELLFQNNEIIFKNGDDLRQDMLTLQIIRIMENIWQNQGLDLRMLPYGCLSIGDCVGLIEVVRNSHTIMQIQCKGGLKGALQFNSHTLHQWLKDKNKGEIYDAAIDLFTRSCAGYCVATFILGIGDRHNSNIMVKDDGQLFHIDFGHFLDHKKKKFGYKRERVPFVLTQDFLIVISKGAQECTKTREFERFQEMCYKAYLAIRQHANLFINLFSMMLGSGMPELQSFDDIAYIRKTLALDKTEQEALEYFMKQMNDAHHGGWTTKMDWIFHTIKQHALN
PI3Kα, sequence (P27986 whole entry partner, species assumed): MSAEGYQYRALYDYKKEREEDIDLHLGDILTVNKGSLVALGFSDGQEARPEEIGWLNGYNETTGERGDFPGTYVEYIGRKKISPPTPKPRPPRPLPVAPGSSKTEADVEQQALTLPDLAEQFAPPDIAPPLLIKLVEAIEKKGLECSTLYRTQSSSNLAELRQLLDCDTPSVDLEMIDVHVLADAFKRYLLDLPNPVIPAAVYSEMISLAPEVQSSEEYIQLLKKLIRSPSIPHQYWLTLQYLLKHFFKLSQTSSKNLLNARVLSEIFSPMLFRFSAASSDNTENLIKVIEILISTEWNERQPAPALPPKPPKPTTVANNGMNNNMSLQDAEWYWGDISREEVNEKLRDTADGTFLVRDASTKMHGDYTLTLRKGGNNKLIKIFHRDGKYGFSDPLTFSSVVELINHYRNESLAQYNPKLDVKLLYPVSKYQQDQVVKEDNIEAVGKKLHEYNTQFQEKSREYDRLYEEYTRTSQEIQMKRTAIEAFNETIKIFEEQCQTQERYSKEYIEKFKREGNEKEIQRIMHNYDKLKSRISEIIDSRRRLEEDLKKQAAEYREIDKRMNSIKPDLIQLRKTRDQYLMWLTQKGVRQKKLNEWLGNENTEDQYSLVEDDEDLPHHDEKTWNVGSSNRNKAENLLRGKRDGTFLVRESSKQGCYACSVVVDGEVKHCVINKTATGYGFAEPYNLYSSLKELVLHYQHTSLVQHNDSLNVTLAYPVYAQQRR
Method: The reaction buffer was 20 mM HEPES pH7.5, 2 mM MgCl2, 0.05% CHAPS, and 0.01% βME (added fresh). The substrate solution was 40 μM PIP2 (diC8, Echelon, Salt Lake City Utah cat #P-4508, 1 mM in water) and 50 μM ATP in the reaction buffer. Nunc 384-well black polypropylene fluorescent plates were used for PI3K assays. The assay is run by putting 9.5 μl of freshly diluted enzyme in the reaction buffer per well, adding 0.5 μl of diluted drug or DMSO, and mixing. Then 10 μl of the substrate solution is added to each well to start the reaction. A final concentration of 20 μM PIP2 and 25 μM ATP in the reaction was used. Reactions were allowed to proceed for 30-60 minutes at room temperature. After 30-60 minutes, 20 μl of a solution of 10 nM TAMRA detector (Red detector probe-Echelon) and 2.5 uM of GST-murine GRP (1.5 mg/ml in 17% glycerol) was added per well to stop the reaction. The resulting solution was mixed well and allowed to stand for 90-110 minutes before reading plate. Assay Plates were read on Perkin-Elmer Envision plate readers with appropriate filters for Tamra [BODIPY-TMRI(1,3,4,5)P4]. Data obtained were used to calculate enzymatic activity and enzyme inhibition by inhibitor compounds. It is important to keep Red probe solutions dark. This procedure is adapted from Echelon Biosciences Inc procedure for their PI3-Kinase fluorescence polarization activity Assay kit Product number K-1100.

[2] = tested on: LNCap prostate tumor cells; assay: In vitro cell growth assay (MTS), LNCap; assay type: cell-based, human; conditions: three days after drug treatment
Method: as §1

SMILES | IC50 ([1]; Homo sapiens, 72 h) | IC50 (human TOR (FLAG-TOR)) | IC50 (PI3Kα) | IC50 ([2]; Homo sapiens, LNCaP, 72 h) | IC50 [1] | IC50 [2]
O=c1cc(Oc2ccccc2)c2ccc(Br)cc2[nH]1 | > 60 µM | > 20 µM | 5.39 µM | > 60 µM |  | 
O=c1cc(Oc2ccc(-c3ccncc3)cc2)c2ccccc2[nH]1 | > 60 µM | 0.24 µM | 4.88 µM | 1.9 µM |  | 
O=c1cc(Oc2cccc(-c3cn[nH]c3)c2)c2ccccc2[nH]1 | 2.9 µM | 0.3 µM | 3.9 µM | 8 µM |  | 
O=c1cc(Oc2ccc(-c3ccc(F)cc3)cc2)c2ccccc2[nH]1 | > 60 µM | 15.8 µM | 9.66 µM | > 60 µM |  | 
CC(=O)Nc1ccc(-c2cccc(Oc3cc(=O)[nH]c4ccccc34)c2)cc1 | 11 µM | 0.22 µM | 3.67 µM | 15 µM |  | 
O=c1cc(Oc2ccc(-c3ccc(NCCN4CCOCC4)nc3)cc2)c2ccccc2[nH]1 | 8 µM | 1.08 µM | > 10 µM | 1.05 µM |  | 
O=c1cc(Oc2cccc(N3CCOCC3)c2)c2ccccc2[nH]1 | 60 µM | 0.43 µM | > 10 µM | 9 µM |  | 
Cn1cc(CNc2cccc(Oc3cc(=O)[nH]c4ccccc34)c2)cn1 | 8.8 µM | 0.17 µM | 4.79 µM | 4 µM |  | 
COc1ncc(-c2cccc(Oc3cc(=O)[nH]c4ccccc34)c2)c(OC)n1 | 38 µM | 0.28 µM | > 10 µM | > 60 µM |  | 
O=c1cc(Oc2cccc(-c3cccnc3)c2)c2ccccc2[nH]1 | 20 µM | 0.43 µM | 3.66 µM | 7 µM |  | 
O=c1cc(Oc2cccc(-c3ccc(NCc4cccnc4)cc3)c2)c2ccccc2[nH]1 | > 60 µM | 1.3 µM | 7 µM | > 60 µM |  | 
O=c1cc(Oc2cccc(Br)c2)c2ccccc2[nH]1 | > 60 µM | 0.11 µM | > 10 µM | 60 µM |  | 
O=c1cc(Oc2cccc(-c3ccc(NCCN4CCOCC4)nc3)c2)c2ccccc2[nH]1 | 2 µM | 0.15 µM | 6.79 µM | 4.7 µM |  | 
CCOc1ccc(Oc2cc(=O)[nH]c3ccccc23)cc1 | > 60 µM | > 20 µM | > 10 µM | > 60 µM |  | 
O=c1cc(Oc2ccc(C3=NCCCN3)cc2)c2ccccc2[nH]1 | 60 µM | 0.57 µM | > 10 µM | > 60 µM |  | 
NC(=O)c1ccc(Oc2cc(=O)[nH]c3ccccc23)cc1 | 23 µM | 1.83 µM | > 10 µM | > 60 µM |  | 
O=c1cc(Oc2cccc(-c3ccc(NC4CCN(Cc5ccccn5)CC4)cc3)c2)c2ccccc2[nH]1 | 11 µM | 0.11 µM | > 10 µM | 5.2 µM |  | 
CC(=O)Nc1ccc2[nH]c(=O)cc(Oc3ccccc3)c2c1 | > 60 µM | > 20 µM | > 10 µM | > 60 µM |  | 

SMILES | IC50 ([1]; Homo sapiens, 72 h) | IC50 (human TOR (FLAG-TOR)) | IC50 (PI3Kα) | IC50 ([2]; Homo sapiens, LNCaP, 72 h) | IC50 [1] | IC50 [2]
O=c1cc(Oc2cccc(-c3cc[nH]n3)c2)c2ccccc2[nH]1 | 60 µM | 0.15 µM | 6.67 µM | 30 µM |  | 
Nc1nc(Cl)c(CNc2cccc(Oc3cc(=O)[nH]c4ccccc34)c2)c(Cl)n1 | 3.5 µM | 0.17 µM | > 10 µM | 5.2 µM |  | 
CN1CCN(c2cccc(Oc3cc(=O)[nH]c4ccccc34)c2)CC1 [drawing 359] |  | 0.37 µM | 10.3 µM | 0.62 µM |  | 
Cn1ccc2cc(CNc3cccc(Oc4cc(=O)[nH]c5ccccc45)c3)ccc21 | 1.2 µM | 0.35 µM | 1.42 µM | 1 µM |  | 
O=c1cc(Oc2cccc(OCc3ccccc3)c2)c2ccccc2[nH]1 [drawing 351] | > 60 µM |  | 4.15 µM | > 60 µM |  | 
O=c1cc(Oc2cccc(NCc3ccc(-c4cccc(CO)n4)cc3)c2)c2ccccc2[nH]1 | 10 µM | 0.09 µM | 3.92 µM | 4.3 µM |  | 
O=c1cc(Oc2cccc(NCc3ccc(Oc4ccc(F)cc4)cc3)c2)c2ccccc2[nH]1 | 12 µM | 3.5 µM | > 10 µM | 5.3 µM |  | 
O=c1cc(Oc2cccc(NCc3ccc(F)nc3)c2)c2ccccc2[nH]1 [drawing 208] |  |  | 9.54 µM |  | 11 µM | 4 µM
O=c1cc(Oc2ccccc2)c2ccc(Cl)cc2[nH]1 |  | > 20 µM | 0.308 µM |  |  | 
O=c1cc(Oc2ccccn2)c2ccccc2[nH]1 [drawing 389] |  | 9.7 µM | 8.74 µM | > 60 µM |  | 
O=c1cc(Oc2ccccc2)c2cc(Br)ccc2[nH]1 |  | > 20 µM | > 10 µM |  |  | 
Nc1ncccc1CNc1cccc(Oc2cc(=O)[nH]c3ccccc23)c1 |  | 0.07 µM | > 10 µM | 4 µM |  | 
COC[C@@H]1CCCN1CCNc1ccc(-c2cccc(Oc3cc(=O)[nH]c4ccccc34)c2)cc1 |  | 0.13 µM | 11 µM | 5 µM |  | 
O=c1cc(Oc2cccc(NCc3ccc(F)nc3)c2)c2ccccc2[nH]1 [drawing 218] |  |  |  |  | 50 µM | 13 µM
O=c1cc(Oc2cccc(NCc3ccc(-n4ccnc4)cc3)c2)c2ccccc2[nH]1 |  | 0.08 µM | > 10 µM | 4 µM |  | 
CC(C)(C)OC(=O)Nc1ccc(CNc2cccc(Oc3cc(=O)[nH]c4ccccc34)c2)cn1 | 60 µM | 0.42 µM |  | 12 µM |  | 
CN1CCC(N(C)c2cccc(-c3cccc(Oc4cc(=O)[nH]c5ccccc45)c3)c2)CC1 |  | 0.33 µM | 8.31 µM | 3 µM |  | 

Next, values leading:

IC50 ([1]; Homo sapiens, 72 h) | IC50 (human TOR (FLAG-TOR)) | IC50 (PI3Kα) | IC50 ([2]; Homo sapiens, LNCaP, 72 h) | IC50 [1] | IC50 [2] | SMILES
8 µM | 0.06 µM | 13 µM | 3.5 µM |  |  | O=c1cc(Oc2cccc(NCc3ccc(Cl)nc3)c2)c2ccccc2[nH]1
8.5 µM | 0.55 µM | 15 µM | 9 µM |  |  | O=c1cc(Oc2cccc(-c3ccnc(N4CCNCC4)c3)c2)c2ccccc2[nH]1
> 60 µM | 0.69 µM | > 10 µM | > 60 µM |  |  | Cc1ccc(Oc2cc(=O)[nH]c3ccccc23)cc1C
> 60 µM | 0.71 µM | 1.66 µM | > 60 µM |  |  | O=c1cc(Oc2ccc(-c3cccc(O)c3)cc2)c2ccccc2[nH]1
> 60 µM | > 20 µM | > 10 µM | > 60 µM |  |  | Cn1cc(-c2ccc3[nH]c(=O)cc(Oc4ccccc4)c3c2)cn1
> 60 µM | 0.6 µM | 6.73 µM | 4.5 µM |  |  | Nc1cccc(Oc2cc(=O)[nH]c3cc(Cl)ccc23)c1
28 µM | 0.15 µM | 0.106 µM | 2.5 µM |  |  | Nc1cccc(Oc2cc(=O)[nH]c3ccccc23)c1
10 µM | 0.32 µM | > 10 µM | 10 µM |  |  | CN(C)CCNC(=O)c1cccc(-c2cccc(Oc3cc(=O)[nH]c4ccccc34)c2)c1
> 60 µM | 1.5 µM | > 10 µM | > 60 µM |  |  | O=c1cc(Oc2ccc3c(c2)OCO3)c2ccccc2[nH]1
27 µM | 16.5 µM | 1.17 µM | 7.5 µM |  |  | O=c1cc(Oc2ccccc2)c2cc(N3CCOCC3)ccc2[nH]1
 | 0.12 µM | > 10 µM | 35 µM |  |  | O=c1cc(Oc2cccc(NCc3ccsc3)c2)c2ccccc2[nH]1
 | 6 µM | 7.28 µM |  |  |  | CC(=O)Nc1ccc(Oc2cc(=O)[nH]c3ccccc23)cc1
 | 0.14 µM | 3.78 µM | 6 µM |  |  | O=c1cc(Oc2cccc(NCc3ccccc3)c2)c2ccccc2[nH]1
10 µM | 0.16 µM |  | 4.2 µM |  |  | CC(C)(C)CNc1ncccc1CNc1cccc(Oc2cc(=O)[nH]c3ccccc23)c1
60 µM |  | 3.94 µM | 60 µM |  |  | O=c1cc(Oc2ccccc2)c2cc(-c3ccncc3)ccc2[nH]1
10.5 µM | 0.72 µM |  | 7 µM |  |  | CN(C)CCCN1CCN(c2cccc(Oc3cc(=O)[nH]c4ccccc34)c2)CC1
 | 8.2 µM | 8.23 µM |  |  |  | O=c1cc(Oc2ccccc2)c2cc(-c3ccccc3)ccc2[nH]1
